Reference: US20170119776A1, “CHIRAL 2,5-DISUBSTITUTED CYCLOPENTANECARBOXYLIC ACID DERIVATIVES AND USE THEREOF” (BAYER PHARMA AKTIENGESELLSCHAFT, priority 2014, published 2017)

How the values were obtained:
Format in all cases: biochemical
MMP-14 = target: T1, MMP-14 (Homo sapiens, UniProt P50281); test: In vitro MMP-14 inhibition test
T1 construct: purchased R&D Systems 918-MP
Excerpt: (§1) The activity strength of the compounds according to the invention towards other MMPs (and therefore their selectivity) is likewise ascertained in in vitro inhibition tests. The MMP-mediated amidolytic cleavage of a suitable peptide substrate also leads here to a fluorescent light increase. The signal intensity of the fluorescent light is directly proportional to the enzyme activity. The active concentration of a test compound at which half of the enzyme is inhibited (50% signal intensity of the fluorescent light) is given as IC50 value.
Recombinant MMP-14 (R&D Systems, 918-MP) is enzymatically activated in accordance with the manufacturer's instructions using recombinant furin (R&D Systems, 1503-SE). 1 μl of the test compound to be analysed (as a solution in DMSO, suitable concentrations e.g. 1 nM to 30 μM) is pipette into 24 μl of activated enzyme (final concentration e.g. 0.5 nM) in reaction buffer (50 mM Tris/HCl pH 7.5, 10 mM CaCl2, 150 mM NaCl, 0.05% Brij®-35) in a white 384-hole microtiter plate (MTP). The enzymatic reaction is started by adding the intramolecularly quenched substrate Mca-Lys-Pro-Leu-Gly-Leu-Dpa(Dnp)-Ala-Arg-NH2 (final concentration e.g. 5 μM; R&D Systems, ES-010), such that a total test volume of 50 μl results. The progress of the MMP-14 reaction is measured by measuring the fluorescence intensity (excitation 320 nm, emission 410 nm) over a suitable period (e.g. over 120 min at a temperature of 32° C.).
(§2) The IC50 values were determined for racemates and enantiomers from differently generated DMSO stock solutions. Whereas an automatically produced DMSO stock solution from the internal substance logistics was used for racemates by means of a standard method, in the case of enantiomers a freshly produced, manually prepared DMSO stock solution was used in each case for a more precise direct comparison of the enantiomers with one another.

MMP-8 = target: T2, MMP-8 (Homo sapiens, UniProt P22894); test: In vitro MMP-8 inhibition test
T2 construct: purchased R&D Systems 908-MP
Excerpt: as §1
(§3) Recombinant MMP-8 (R&D Systems, 908-MP) is chemically activated in accordance with the manufacturer's instructions using APMA. 1 μl of the test compound to be analysed (as a solution in DMSO, suitable concentrations e.g. 1 nM to 30 μM) is pipette into 24 μl of activated enzyme (final concentration e.g. 0.5 nM) in reaction buffer (50 mM Tris/HCl pH 7.5, 10 mM CaCl2, 150 mM NaCl, 0.05% Brij®-35) in a white 384-hole microtiter plate (MTP). The enzymatic reaction is started by adding the intramolecularly quenched substrate Mca-Pro-Leu-Gly-Leu-Dpa(Dnp)-Ala-Arg-NH2 (final concentration e.g. 10 μM; R&D Systems, ES-001), such that a total test volume of 50 μl results. The progress of the MMP-8 reaction is measured by measuring the fluorescence intensity (excitation 320 nm, emission 410 nm) over a suitable period (e.g. over 120 min at a temperature of 32° C.).
as §2

MMP-10 = target: T3, MMP-10 (Homo sapiens, UniProt P09238); test: In vitro MMP-10 inhibition test
T3 construct: purchased R&D Systems 910-MP
Excerpt: as §1
as §3, with “MMP-10” for “MMP-8”, “910-MP)” for “908-MP)”, “2” for “0.5”, “Mca-Arg-Pro-Lys-Pro-Val-Glu-Nval-Trp-Arg-Lys(Dnp)-NH2” for “Mca-Pro-Leu-Gly-Leu-Dpa(Dnp)-Ala-Arg-NH2”, “ES-002),” for “ES-001),”
as §2

MMP-3 of the mouse = target: T4, MMP-3 of the mouse (Mus musculus, UniProt P28862); test: In vitro MMP-3 inhibition test of the mouse
T4 construct: purchased R&D Systems 548-MP
Excerpt: as §1
Recombinant MMP-3 of the mouse (R&D Systems, 548-MP) is chemically activated in accordance with the manufacturer's instructions using APMA. 1 μl of the test compound to be analysed (as a solution in DMSO, suitable concentrations e.g. 1 nM to 30 μM) is pipetted into 24 μl of activated enzyme (final concentration e.g. 0.5 nM) in reaction buffer (50 mM Tris/HCl pH 7.5, 10 mM CaCl2, 150 mM NaCl, 0.05% Brij®-35) in a white 384-hole microtiter plate (MTP). The enzymatic reaction is started by adding the intramolecularly quenched substrate Mca-Arg-Pro-Lys-Pro-Val-Glu-Nval-Trp-Arg-Lys(Dnp)-NH2 (final concentration e.g. 5 μM; R&D Systems, ES-002), such that a total test volume of 50 μl results. The progress of the MMP-3 reaction is measured by measuring the fluorescence intensity (excitation 320 nm, emission 410 nm) over a suitable period (e.g. over 120 min at a temperature of 32° C.).
Tables 3A and 3B below give the IC50 values from these tests for the inhibition of rodent MMPs for representative embodiment examples of the present invention and also for two structurally related comparison compounds from the prior art (as racemate and separated enantiomer)→(in part as average values from several independent individual determinations and rounded to two significant places). The IC50 values were determined for racemates and enantiomers from differently generated DMSO stock solutions. Whereas an automatically created DMSO stock solution from the internal substance logistics was used for racemates by means of a standard method, in the case of enantiomers, in each case a freshly produced, manually prepared DMSO stock solution was used for a more precise direct comparison of the enantiomers with one another.

T3 sequence (P09238 99-476): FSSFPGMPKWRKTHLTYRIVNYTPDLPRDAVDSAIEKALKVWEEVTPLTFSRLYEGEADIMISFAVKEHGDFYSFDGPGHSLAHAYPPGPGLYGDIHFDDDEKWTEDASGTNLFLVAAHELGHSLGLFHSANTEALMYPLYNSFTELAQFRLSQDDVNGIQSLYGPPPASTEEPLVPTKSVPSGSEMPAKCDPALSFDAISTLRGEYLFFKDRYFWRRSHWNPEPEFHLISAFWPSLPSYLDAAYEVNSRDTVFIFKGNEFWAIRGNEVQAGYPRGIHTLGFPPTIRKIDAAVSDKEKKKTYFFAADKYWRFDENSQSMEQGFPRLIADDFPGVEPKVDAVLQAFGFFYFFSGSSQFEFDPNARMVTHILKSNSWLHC
T2 sequence (P22894 101-467): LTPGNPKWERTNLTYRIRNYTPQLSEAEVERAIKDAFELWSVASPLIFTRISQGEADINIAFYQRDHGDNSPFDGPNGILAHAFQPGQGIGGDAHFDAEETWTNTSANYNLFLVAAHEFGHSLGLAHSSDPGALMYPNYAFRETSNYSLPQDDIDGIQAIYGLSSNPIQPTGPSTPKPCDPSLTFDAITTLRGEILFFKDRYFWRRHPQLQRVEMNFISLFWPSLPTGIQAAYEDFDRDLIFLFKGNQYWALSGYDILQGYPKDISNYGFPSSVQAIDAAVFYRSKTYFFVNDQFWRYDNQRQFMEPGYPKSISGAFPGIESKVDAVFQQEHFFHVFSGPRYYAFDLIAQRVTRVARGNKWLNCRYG
T4 sequence (P28862 100-477): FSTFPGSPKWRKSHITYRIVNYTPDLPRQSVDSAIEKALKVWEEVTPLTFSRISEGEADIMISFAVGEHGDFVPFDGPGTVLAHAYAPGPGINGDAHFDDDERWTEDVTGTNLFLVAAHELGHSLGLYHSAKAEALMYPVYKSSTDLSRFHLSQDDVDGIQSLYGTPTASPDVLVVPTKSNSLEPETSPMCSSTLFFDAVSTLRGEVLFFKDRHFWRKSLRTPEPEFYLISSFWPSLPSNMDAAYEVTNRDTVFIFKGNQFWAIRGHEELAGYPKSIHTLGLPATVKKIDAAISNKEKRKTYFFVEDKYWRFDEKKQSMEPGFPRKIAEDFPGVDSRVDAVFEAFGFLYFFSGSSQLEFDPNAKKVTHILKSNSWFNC

SMILES	IC50 (MMP-14)	IC50 (MMP-8)	IC50 (MMP-10)	IC50 (MMP-3 of the mouse)
O=C(O)[C@H]1[C@H](Cn2nnc3ccccc3c2=O)CC[C@@H]1C(=O)c1ccc(-c2ccc(Cl)cc2)cc1 (racemic) [Comparative Example A-1, (1RS,2RS,5SR)-2-[(4′-chlorobiphenyl-4-yl)carbonyl]-5-[(4-oxo-1,2,3-benzotriazin-3(4H)-yl)methyl]cyclopentanecarboxylic acid (racemate)]	2.9 nM	< 0.61 nM	4.6 nM	17 nM
CCCCCOc1ccc(C(=O)CC(CCn2nnc3ccccc3c2=O)C(=O)O)cc1 (racemic) [Comparative Example B-1, (+/−)-4-Oxo-2-[2-(4-oxo-1,2,3-benzotriazin-3(4H)-yl)ethyl]-4-[4-(pentyloxy)phenyl]butanoic acid (racemate)]	3800 nM	706 nM	5700 nM	13000 nM
O=C(O)[C@H]1[C@H](Cn2nnc3ccccc3c2=O)CC[C@@H]1C(=O)c1ccc(OCc2ccccc2)cc1 (racemic) [Example 1, (+/−)-(1RS,2RS,5SR)-2-[4-(Benzyloxy)benzoyl]-5-[(4-oxo-1,2,3-benzotriazin-3(4H)-yl)methyl]cyclopentanecarboxylic acid (racemate)]	27 nM	9.2 nM	21 nM	290 nM
CCCCCOc1ccc(C(=O)CC(CCn2nnc3ccccc3c2=O)C(=O)O)cc1 (single isomer, unassigned; enantiomer 1) [Comparative Example B-2, (+)-4-Oxo-2-[2-(4-oxo-1,2,3-benzotriazin-3(4H)-yl)ethyl]-4-[4-(pentyloxy)phenyl]butanoic acid (enantiomer 1)]	1300 nM	275 nM	1900 nM	6750 nM
O=C(O)[C@@H]1[C@@H](Cn2nnc3ccccc3c2=O)CC[C@H]1C(=O)c1ccc(-c2ccc(Cl)cc2)cc1 (single isomer, unassigned; enantiomer 2) [Comparative Example A-3, (1RS,2RS,5SR)-2-[(4′-Chlorobiphenyl-4-yl)carbonyl]-5-[(4-oxo-1,2,3-benzotriazin-3(4H)-yl)methyl]cyclopentanecarboxylic acid (enantiomer 2)]	1.2 nM	< 0.61 nM	< 0.61 nM	11.3 nM
O=C(O)[C@H]1[C@H](Cn2nnc3ccccc3c2=O)CC[C@@H]1C(=O)c1ccc(OCc2ccccc2)cc1 [Example 2, (+)-(1S,2S,5R)-2-[4-(Benzyloxy)benzoyl]-5-[(4-oxo-1,2,3-benzotriazin-3(4H)-yl)methyl]cyclopentanecarboxylic acid]	15 nM	10.1 nM	17.5 nM	87 nM
